What all share (experiment): cells
Holding throughout (set-up): Cell growth inhibition, sulforhodamine B total protein staining

The test system of assay [1] is MINO. To be noted: Homo sapiens, MINO; 72 h growth; read-out: Cell growth inhibition IC50/µM. As to the method:
(§1) Cell panel profiling A panel of 94 cell lines was exposed to Glupin for 72 h to assess the influence on cell growth (Oncolead, Germany). Cell growth was determined using sulforhodamine B assay. Measurements were performed using a total protein staining protocol. Briefly, after treatement cells were fixed addition of 10% TCA (for adherent growing cells) or 50% TCA (for semi-adherent growing cells or cells growing in suspension). After an incubation at 4°C for 1 h, plates were washed twice with 400 μl of deionized water and dried. Cells were then stained with 100 μl of 0.04% wt/v sulforhodamine B. Plates were incubated at room temperature for at least 30 min and washed six times with 1% acetic acid to remove unbound stain. […] This effect was much stronger at a physiological glucose concentration (5 mM; Figure 5 b,c). […] IC50 values lower than 300 nM were obtained for more than 20 cell lines, whereas 24 cell lines were not affected by the compound, among them the peripheral blood mononuclear control cells (PBMCs). Sensitivity to Glupin was detected across various tissue types (Table S6).

In assay [2] the test system is THP1. To be noted: Homo sapiens, THP-1; 72 h growth; read-out: Cell growth inhibition IC50/µM. The protocol:
as §1

Assay [3] deals with SKNSH. As to conditions: Homo sapiens, SK-N-SH; 72 h growth; read-out: Cell growth inhibition IC50/µM. As to the method: as §1
Assay [4] has as its system A549. As to conditions: Homo sapiens, A549; 72 h growth; read-out: Cell growth inhibition IC50/µM. The protocol:
as §1

Assay [5] deals with NCIH460. As to conditions: Homo sapiens, NCI-H460; 72 h growth; read-out: Cell growth inhibition IC50/µM. As to the method:
as §1

Assay [6] relates to OVCAR3. As to conditions: Homo sapiens, OVCAR-3; 72 h growth; read-out: Cell growth inhibition IC50/µM. As to the method:
as §1

Assay [7] concerns DLD1. As to conditions: Homo sapiens, DLD-1; 72 h growth; read-out: Cell growth inhibition IC50/µM. As to the method: as §1
For assay [8], the system named is COLO678. To be noted: Homo sapiens, COLO-678; 72 h growth; read-out: Cell growth inhibition IC50/µM. The protocol: as §1
The test system of assay [9] is A2780. To be noted: Homo sapiens, A2780; 72 h growth; read-out: Cell growth inhibition IC50/µM. As to the method: as §1
For assay [10], the system named is PBMC. To be noted: PBMC; 72 h growth; read-out: Cell growth inhibition IC50/µM. The protocol: as §1
In assay [11] the test system is UO31. To be noted: Homo sapiens, UO-31; 72 h growth; read-out: Cell growth inhibition IC50/µM. As to the method:
as §1

Assay [12] concerns SW620. To be noted: Homo sapiens, SW-620; 72 h growth; read-out: Cell growth inhibition IC50/µM. The protocol:
as §1

Assay [13] relates to SUDHL10. To be noted: Homo sapiens, SU-DHL10; 72 h growth; read-out: Cell growth inhibition IC50/µM. As to the method: as §1
In assay [14] the test system is COLO205. As to conditions: Homo sapiens, COLO 205; 72 h growth; read-out: Cell growth inhibition IC50/µM. As to the method: as §1
Assay [15] deals with OVCAR4. As to conditions: Homo sapiens, OVCAR-4; 72 h growth; read-out: Cell growth inhibition IC50/µM. As to the method: as §1
Assay [16] deals with JEG3. As to conditions: Homo sapiens, JEG-3; 72 h growth; read-out: Cell growth inhibition IC50/µM. As to the method: as §1
Assay [17] has as its system IGROV1. To be noted: Homo sapiens, IGROV-1; 72 h growth; read-out: Cell growth inhibition IC50/µM. As to the method: as §1
The test system of assay [18] is RAMOS. To be noted: Homo sapiens, Ramos; 72 h growth; read-out: Cell growth inhibition IC50/µM. The protocol:
as §1

In assay [19] the test system is PLCPRF5. As to conditions: Homo sapiens, PLC-PRF-5; 72 h growth; read-out: Cell growth inhibition IC50/µM. The protocol:
as §1

Assay [20] relates to U2OS. As to conditions: Homo sapiens, U2OS; 72 h growth; read-out: Cell growth inhibition IC50/µM. As to the method: as §1
In assay [21] the test system is HT1080. As to conditions: Homo sapiens, HT-1080; 72 h growth; read-out: Cell growth inhibition IC50/µM. The protocol:
as §1

In assay [22] the test system is ASPC1. As to conditions: Homo sapiens, ASPC1; 72 h growth; read-out: Cell growth inhibition IC50/µM. As to the method: as §1
For assay [23], the system named is K562. As to conditions: Homo sapiens, K562; 72 h growth; read-out: Cell growth inhibition IC50/µM. As to the method: as §1

Regarding `CCOC(=O)Cn1c2c(c3ccccc31)C[C@@H]1C[C@H]2C(OC)CN1C(=O)c1cccnc1SC` (single isomer, unassigned; (+)) [(+)-5a, Glupin], the IC50 is 1.77 µM in assay [1]; over 30 µM in assay [2]; 0.084 µM in assay [3]; 0.32 µM in assay [4]; 0.572 µM in assay [5]; over 30 µM in assay [6]. Further, the IC50 in assay [7] is 0.825 µM; in assay [8], over 30 µM; in [9] it was 0.248 µM; in [10], over 30 µM; in [11], 0.109 µM; in assay [12] it was over 30 µM. Besides, the IC50 in assay [13] was 0.219 µM; in [14], 3.73 µM; in assay [15], 1.41 µM; in [16] it was 0.933 µM; in assay [17] it was 1.76 µM; in assay [18], 0.212 µM. The IC50 in assay [19] is over 30 µM; in assay [20] it was 0.502 µM; in assay [21] it was 0.118 µM; in assay [22], 0.695 µM; in [23], 0.137 µM.
